Results on one compound are retold here after ChEMBL document CHEMBL6074678, “Selectively Antagonizing the NOD1-Mediated Inflammatory Signaling Pathway Mitigates the Gastric Inflammation Induced by Helicobacter pylori Infection” (J Med Chem, 2024).

Active and inactive are the calls of the source. The calls are words filed in the database; no cut-off is given here.

In one data set the test system is AGS. The data set is described as follows: Anti-inflammatory activity in human AGS cells assessed as decrease in CXCL8 mRNA level at 1 uM pretreated for 1 hr followed by C12-iE-DAP stimulation for 2 hrs by RT-qPCR analysis. The conditions noted are these: time 3.0 hrs. In kind it is functional, cell-based.
The target of data set [1] is T1, Nucleotide-binding oligomerization domain-containing protein 1 (Homo sapiens) (UniProt Q9Y239).
T1 sequence (whole entry): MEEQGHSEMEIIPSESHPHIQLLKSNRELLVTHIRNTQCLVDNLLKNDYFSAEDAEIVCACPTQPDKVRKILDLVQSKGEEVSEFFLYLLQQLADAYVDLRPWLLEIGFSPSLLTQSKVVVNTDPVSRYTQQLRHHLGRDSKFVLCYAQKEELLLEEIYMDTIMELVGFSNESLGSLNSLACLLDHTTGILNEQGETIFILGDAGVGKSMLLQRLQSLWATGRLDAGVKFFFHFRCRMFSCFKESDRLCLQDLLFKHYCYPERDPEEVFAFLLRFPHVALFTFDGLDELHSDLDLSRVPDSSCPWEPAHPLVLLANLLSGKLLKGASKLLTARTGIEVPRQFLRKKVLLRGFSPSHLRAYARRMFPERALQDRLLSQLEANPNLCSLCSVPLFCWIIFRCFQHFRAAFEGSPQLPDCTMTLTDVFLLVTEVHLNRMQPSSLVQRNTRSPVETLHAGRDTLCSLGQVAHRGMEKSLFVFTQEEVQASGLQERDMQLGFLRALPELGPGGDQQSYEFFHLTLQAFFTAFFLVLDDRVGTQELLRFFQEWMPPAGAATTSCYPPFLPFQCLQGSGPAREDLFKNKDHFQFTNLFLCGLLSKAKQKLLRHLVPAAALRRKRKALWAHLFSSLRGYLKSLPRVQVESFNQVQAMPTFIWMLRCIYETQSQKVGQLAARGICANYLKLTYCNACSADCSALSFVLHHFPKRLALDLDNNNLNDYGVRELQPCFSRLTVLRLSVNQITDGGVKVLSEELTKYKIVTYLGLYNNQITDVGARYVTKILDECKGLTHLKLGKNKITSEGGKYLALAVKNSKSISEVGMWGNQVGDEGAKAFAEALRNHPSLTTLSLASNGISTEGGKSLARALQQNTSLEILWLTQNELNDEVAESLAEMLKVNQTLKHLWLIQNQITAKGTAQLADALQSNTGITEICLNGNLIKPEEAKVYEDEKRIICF
The data set is described as follows: Antagonist activity at human NOD1 expressed in HEK-Blue cells assessed as decrease in SEAP secretion incubated for 3 hrs followed by C12-iE-DAP stimulation for 20 hrs by spectrophotometry. In kind it is cell-based. As to conditions: HEK-Blue hNOD1, filed as antagonist, time 23.0 hrs.

Data set [2] can be described thus: Volume of distribution at steady state in C57BL/6 mouse at 2 mg/kg, iv by LC-MS/MS analysis. In kind it is ADME, organism-based. As to conditions: in vivo, read-out: Vdss.
In data set [3] the target is T2, Nucleotide-binding oligomerization domain-containing protein 1 (Mus musculus) (UniProt Q8BHB0).
T2 sequence (whole entry): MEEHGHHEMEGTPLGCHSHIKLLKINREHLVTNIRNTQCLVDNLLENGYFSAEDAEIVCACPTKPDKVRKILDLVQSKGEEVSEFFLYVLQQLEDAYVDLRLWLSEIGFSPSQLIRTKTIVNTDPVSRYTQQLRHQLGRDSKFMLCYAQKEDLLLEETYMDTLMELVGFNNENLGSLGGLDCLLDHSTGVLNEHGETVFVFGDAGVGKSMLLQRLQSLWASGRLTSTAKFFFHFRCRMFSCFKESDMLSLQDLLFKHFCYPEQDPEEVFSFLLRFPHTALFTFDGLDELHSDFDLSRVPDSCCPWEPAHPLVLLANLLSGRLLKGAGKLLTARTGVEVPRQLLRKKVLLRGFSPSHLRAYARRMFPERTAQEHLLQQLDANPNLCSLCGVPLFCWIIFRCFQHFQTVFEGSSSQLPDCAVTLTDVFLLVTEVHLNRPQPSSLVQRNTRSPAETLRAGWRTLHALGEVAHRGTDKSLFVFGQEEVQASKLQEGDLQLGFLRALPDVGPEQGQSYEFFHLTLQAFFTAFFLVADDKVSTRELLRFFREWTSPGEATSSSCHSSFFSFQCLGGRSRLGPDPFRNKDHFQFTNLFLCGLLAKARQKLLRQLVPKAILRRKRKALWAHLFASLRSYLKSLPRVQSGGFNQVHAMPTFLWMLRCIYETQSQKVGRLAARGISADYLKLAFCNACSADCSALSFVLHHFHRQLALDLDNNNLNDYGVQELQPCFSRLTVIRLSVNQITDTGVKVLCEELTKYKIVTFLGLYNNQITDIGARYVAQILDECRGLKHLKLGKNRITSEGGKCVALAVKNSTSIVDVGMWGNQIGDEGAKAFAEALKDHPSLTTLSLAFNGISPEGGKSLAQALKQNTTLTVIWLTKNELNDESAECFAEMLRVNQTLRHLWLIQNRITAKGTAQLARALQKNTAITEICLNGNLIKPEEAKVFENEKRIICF
The data set is described as follows: Antagonist activity at mouse NOD1 expressed in HEK-Blue cells assessed as decrease in SEAP secretion incubated for 3 hrs followed by C12-iE-DAP stimulation for 20 hrs by spectrophotometry. In kind it is cell-based. As to conditions: HEK-Blue mNOD1, filed as antagonist, time 23.0 hrs.

Data set [4] has as its system THP-1. In words: Anti-inflammatory activity in human THP-1 cells assessed as decrease in CXCL8 mRNA level at 5 uM pretreated for 1 hr followed by infection with Helicobacter pylori for 2 hrs by RT-qPCR analysis. In kind it is functional, cell-based. As to conditions: time 3.0 hrs.
The nature of data set [5]: Cmax in C57BL/6 mouse at 20 mg/kg, po by LC-MS/MS analysis. In kind it is ADME, organism-based. The conditions noted are these: in vivo.
Data set [6] deals with T1, Nucleotide-binding oligomerization domain-containing protein 1 (Homo sapiens). The data set is described as follows: Antagonist activity at NOD1 in human THP-1 cells assessed as decrease in phosphorylated RIP2 level at 0.1 to 1 uM incubated for 1 hr followed by C12-iE-DAP stimulation for 30 mins by Western blot analysis. In kind it is cell-based. As to conditions: filed as antagonist, dose 0.1-1 µM, time 1.5 hrs. A general note: Immunoblotting shows a protein as a band on a membrane.

The target is the same in data set [7]. The data set is described as follows: Thermal stabilization of NOD1 (unknown origin) transfected in HEK293 cells at 0.1 to 5 uM incubated for 1 hr heated at higher temperature by CETSA. In kind it is cell-based. The conditions noted are these: dose 0.1-5 µM.
Data set [8] has the same target. In words: Antagonist activity at NOD1 in human THP-1 cells assessed as decrease in phosphorylated JNK level at 0.1 to 1 uM incubated for 1 hr followed by C12-iE-DAP stimulation for 30 mins by Western blot analysis. In kind it is cell-based. As to conditions: filed as antagonist, dose 0.1-1 µM, time 1.5 hrs.
In a further data set the test system is Mus musculus. The data set is described as follows: Anti-inflammatory activity in C57BL/6 mouse assessed as inhibition of serum keratinocyte chemoattractant level pretreated orally with compound for 15 mins followed by C12-iE-DAP administration measured after 2 hrs by ELISA. In kind it is functional, organism-based. As to conditions: dose 12.5-50 mg/kg, route po, time 135.0 min. (In general: An ELISA detects its analyte on a solid surface through an enzyme-linked reagent.)

Data set [9] deals with THP-1. The data set is described as follows: Anti-inflammatory activity in human THP-1 cells assessed as decrease in IL-6 mRNA level at 0.1 uM pretreated for 1 hr followed by C12-iE-DAP stimulation for 2 hrs by RT-qPCR analysis relative to control. In kind it is functional. Set-up: scale not given: the % may be the effect or the level left. As to conditions: time 3 hrs.
Data set [10] in a line: MRT (infinity) in C57BL/6 mouse at 20 mg/kg, po by LC-MS/MS analysis. In kind it is ADME, organism-based. As to conditions: in vivo.

Take `CS(=O)(=O)c1ccc2nc(Cl)n(-c3ccc(Cl)c(NS(=O)(=O)c4c(F)cccc4F)c3)c(=O)c2c1`: the result (with AGS; in the data set with THP-1 [4]; in data set [7]) was Active. Moreover, the Activity entry is “Dose-dependent-effect” in data set [1], “Dose-dependent-effect” in data set [3] and ~100% in the data set on THP-1 [9]. Besides, the Vd in data set [2] worked out at 1.33 L/kg. This compound also registered a Cmax in data set [5] of 44.6 ng/mL. Further, the inhibition result in data set [6] and in [8] was “Active” each time. The inhibition entry in the data set on Mus musculus is “Dose-dependent-effect”. The same compound returned an MRT inf in [10] of 3.22 h.

The Cmax is the maximum level reached in the sampled fluid or tissue. Usually MRT inf stands for the average time that molecules of a dose stay in the body.
